In the assay the test system is NF-κB. The experiment in a line: NF-κB electrophoretic mobility shift assay (EMSA) on cultured, treated milk cells from chronic mastitis-affected cows. Conditions: protein extraction 3 hours after treatment, versus untreated cells. The class given is cell-based, Holstein-Friesian cows. Here is the method: Isolated milk cells were centrifuged for 10 minutes at 300 g and the pellet was resuspended in 600 μl lysis buffer (0.1% nonidet P-40; 10 mM Tris HCl, pH 7.4; 10 mM NaCl; 3 mM MgCl2; 1 mM EDTA; 2 mM orthovanadate; 1 mM diisopropyl fluorophosphates (DFP); 10 μg/ml leupeptin; 10 μg/ml aprotinin). The cells were vortexed 15 seconds, kept on ice for 5 minutes, and centrifuged for 10 minutes at 300 g. The resulting pellet was resuspended in a KCl buffer (10 mM Hepes, pH 7.4; 400 mM KCl; 10% Glycerol; 2 mM EDTA; 1 mM Ethylene glycol-bis[β-aminoethyl ether]-N, N,N′N′-tetraacetic acid (EGTA); 1% nonidet P-40, 1 mM dithiothreitol (DTT); 2 mM orthovanadate; 10 μg/ml leupeptin; 10 μg/ml aprotinin; 1 mM DFP) and kept at 4° C. for 10 minutes before centrifugation for 15 minutes at 12,000 g. The supernatant was diluted three times and stored at −80° C. until use.
Binding reactions were performed for 30 minutes at room temperature with 5 μg of total protein extracts in 20 mM Hepes (pH 7.9), 10 mM KCl, 0.2 mM EDTA, 20% (v/v) glycerol, 1% (w/v) acetylated bovine serum albumin, 3 μg of poly(dI-dC) (Amersham Pharmacia Biotech, Aylesbury, U.K.), 1 mM DTT (dithiothreitol), 1 mM phenylmethylsulfonyl fluoride, and 100,000 cpm of ^32P-labeled double-stranded oligonucleotide probes. Probes were prepared by annealing the appropriate single-stranded oligonucleotides (Eurogentech, Liège, Belgium) at 65° C. for 10 minutes in 10 mM Tris, 1 mM EDTA, and 10 mM NaCl, followed by slow cooling to room temperature. The probes were labeled by end-filling with the Klenow fragment of E. coli DNA polymerase I (Roche, Mannheim, Germany), with [^32P]dATP and [^32P]dCTP (Dupont-New England Nuclear, Les Ulis, Fance). Labeled probes were purified by spin chromatography on Sephadex G-25 columns (Roche). […] The amount of specific complexes was determined by photodensitometry of the autoradiography. […] The NF-κB activity was assessed by photodensitometry of the specific bands. […]
(In EMSA bound probe runs differently from free probe, usually more slowly.)

These results are taken from patent US20060240011A1, “Use of nf-kappa b inhibitors for the treatment of mastitis” (priority 2002, published 2006).

Molecules are shown by their SMILES. “Also recorded” adds a separate entry of the source.

With `CN1C(=O)[C@]23CC4=CC=C[C@H](O)[C@H]4N2C(=O)[C@@]1(CO)SS3` [glyotoxine, gliotoxin], the “NF-κB activity (DNA-binding activity by EMSA, photodensitometry)” value reads like this: (gliotoxine at 1 μl/ml) “reduced NF-κB activity”; (gliotoxine at 1 μl/ml, listed as gliotoxine) “inhibit NF-κB activation”.
Take `CCCCCC=CC=C1C(=O)C=C[C@@H]1CC=CCCCC(=O)O` [15d-PGJ2, 15-deoxy-Δ.12,14-prostaglandin J2]: the “NF-κB activity (DNA-binding activity by EMSA, photodensitometry)” value (15d-PGJ2 at 40 μM, 50 μM, 60 μM and 80 μM) is “reduced NF-κB activity; also recorded: inhibit NF-κB activation”.
